Results taken from ChEMBL document CHEMBL4229381, “New cytokinin derivatives possess UVA and UVB photoprotective effect on human skin cells and prevent oxidative stress” (Eur J Med Chem, 2018).
Activity calls are given as the source filed them. No cut-off for these calls is given here.

Tests used:
NHDF [1] = assay: Cytoprotection against phototoxicity in human NHDF cells assessed as increase in cell viability at 3.9 uM preincubated for 60 mins followed by 7.5 J/cm2 UVA irradiation and measured after 24 hrs by neutral red uptake assay; assay type: functional, cell-based
HaCaT = assay: Potency index, ratio […] for cytoprotection against phototoxicity in human HaCaT cells assessed as increase in cell viability at 3.9 preincubated for 60 mins followed by 150 mJ/cm2 UVB irradiation and measured after 24 hrs by neutral red uptake assay; assay type: functional
[2] = Cytotoxicity in human HaCaT cells assessed as cell viability at 15.6 uM after 24 hrs by neutral red uptake assay relative to control; assay type: cell-based; conditions: read-out: Activity
NHDF [3] = assay: Cytoprotection against phototoxicity in human NHDF cells assessed as increase in cell viability at 3.9 to 31.3 uM preincubated for 60 mins followed by 150 mJ/cm2 UVB irradiation and measured after 24 hrs by neutral red uptake assay; assay type: functional, cell-based
[4] = Stability of the compound in pH 3 solution at 10^-4 M after 1 hr by HPLC analysis; assay type: physicochemical; conditions: read-out: Stability
[5] = Phototoxicity in human NHDF cells assessed as cell viability at 31.3 uM preincubated for 60 mins followed by 5 J/cm2 UVA irradiation and measured after 24 hrs by neutral red uptake assay relative to control; assay type: cell-based; conditions: read-out: Activity
[6] = Cytotoxicity in human NHDF cells assessed as cell viability at 3.9 uM after 24 hrs by neutral red uptake assay relative to control; assay type: cell-based; conditions: read-out: Activity
NHDF [7] = assay: Cytoprotection against phototoxicity in human NHDF cells assessed as increase in cell viability at 3.9 to 31.3 uM preincubated for 60 mins followed by 7.5 J/cm2 UVA irradiation and measured after 24 hrs by neutral red uptake assay; assay type: functional, cell-based
[8] = Phototoxicity in human HaCaT cells assessed as cell viability at 125 uM preincubated for 60 mins followed by 7.5 J/cm2 UVA irradiation and measured after 24 hrs by neutral red uptake assay relative to control; assay type: cell-based; conditions: read-out: Activity
[9] = Phototoxicity in human HaCaT cells assessed as cell viability at 15.6 uM preincubated for 60 mins followed by 7.5 J/cm2 UVA irradiation and measured after 24 hrs by neutral red uptake assay relative to control; assay type: cell-based; conditions: read-out: Activity
Amaranthus caudatus = assay: Growth promoting activity in Amaranthus caudatus var. atropurpurea seeds by measuring betacyanin at 10^-4 mol/L after 48 hrs relative to control; assay type: functional
Caenorhabditis elegans = assay: Protection against juglone-induced oxidative stress in Caenorhabditis elegans BA17 (fem-1) at 100 uM preincubated for 3 days followed by juglone addition measured every hour for 12 ro 14 hrs by inverted microscopic analysis; assay type: functional, organism-based

remaining at 1 h, 100 µM [4]: 94.6%
Compound: c1csc(CNc2ncnc3c2ncn3C2CCCO2)c1 (configuration not stated)
Activity (NHDF [1]): Active
Ratio (HaCaT): >2
viability at 24 h, 15.6 µM [2]: 100%
Activity (NHDF [3]): Active
viability at 24 h, 31.3 µM [5]: 106%
viability at 24 h, 3.9 µM [6]: 100%
Activity (NHDF [7]): Active
viability at 24 h, 125 µM [8]: 127%
viability at 24 h, 15.6 µM [9]: 121%
Activity (Amaranthus caudatus): 81%
Activity (Caenorhabditis elegans): Active
